{"source": "ChEMBL document CHEMBL5506043", "about": "“A β-Carboline Derivate PAD4 Inhibitor Reshapes Neutrophil Phenotype and Improves the Tumor Immune Microenvironment against Triple-Negative Breast Cancer” (J Med Chem, 2024)", "key": {"[1]": {"molecular_target": "Protein-arginine deiminase type-4 (Mus musculus) (UniProt Q9Z183)", "sequence (Q9Z183 whole entry)": "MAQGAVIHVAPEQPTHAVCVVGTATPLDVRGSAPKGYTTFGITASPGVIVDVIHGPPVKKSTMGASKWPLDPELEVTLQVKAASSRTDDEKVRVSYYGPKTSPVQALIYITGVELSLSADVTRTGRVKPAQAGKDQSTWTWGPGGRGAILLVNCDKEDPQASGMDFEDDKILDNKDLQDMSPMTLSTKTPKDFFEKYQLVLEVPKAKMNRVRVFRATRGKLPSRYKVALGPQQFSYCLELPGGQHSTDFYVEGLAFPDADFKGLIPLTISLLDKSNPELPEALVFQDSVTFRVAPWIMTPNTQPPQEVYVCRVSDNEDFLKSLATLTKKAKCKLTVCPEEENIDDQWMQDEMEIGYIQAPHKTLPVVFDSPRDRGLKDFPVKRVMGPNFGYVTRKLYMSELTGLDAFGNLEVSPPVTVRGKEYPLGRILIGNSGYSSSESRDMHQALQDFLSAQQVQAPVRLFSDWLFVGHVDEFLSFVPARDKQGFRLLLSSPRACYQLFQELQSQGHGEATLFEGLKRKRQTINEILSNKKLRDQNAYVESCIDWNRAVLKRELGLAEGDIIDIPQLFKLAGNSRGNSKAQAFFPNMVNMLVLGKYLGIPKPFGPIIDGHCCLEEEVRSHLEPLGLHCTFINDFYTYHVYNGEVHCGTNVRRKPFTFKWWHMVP", "assay": "Inhibition of PAD4 in BALB/c mouse bone marrow neutrophils assessed as reduction in neutrophil extracellular traps formation at 2 uM preincubated for 2 hrs followed by calcium ionophore A23187 addition and measured after 2 hrs by Hoechst 33342/Ly6G staining based laser confocal microscopic analysis", "assay_type": "tissue-based", "details": "time 4.0 hrs"}, "[2]": {"tested_on": "4T1-Luc", "assay": "Antitumor activity against mouse orthotopic 4T1-Luc cells implanted in iv dosed female BALB/c mouse assessed as reduction in tumor volume administered via tail vein every 2 days for 9 times for 17 days and measured every 2 days", "assay_type": "functional, organism-based", "details": "dose 1-10 mg/kg, time 17.0 day"}, "[3]": {"molecular_target": "Protein-arginine deiminase type-4 (Mus musculus) (UniProt Q9Z183)", "assay": "Inhibition of PAD4 in mouse 4T1 cells assessed as reduction in histone H3 citrullination measured after 48 hrs by immunoblot analysis", "assay_type": "cell-based", "details": "dose 0.5-2 µM"}, "[4]": {"tested_on": "4T1", "assay": "Antiproliferative activity against mouse 4T1 cells assessed as inhibition of cell growth incubated for 48 hrs by MTT assay", "assay_type": "functional, cell-based", "details": "4T1, 48 h"}, "[5]": {"tested_on": "Mus musculus", "assay": "In vivo inhibition of PAD4 in female BALB/c mouse implanted with mouse orthotopic 4T1-Luc cells assessed as inhibition of histone H3 citrullination in tumor at 10 mg/kg, iv administered via tail vein every 2 days for 9 times for 17 days by immunohistochemical staining based analysis", "assay_type": "functional, organism-based", "details": "time 17.0 day"}, "[6]": {"tested_on": "Mus musculus", "assay": "(§1) Induction of tumor microenvironment in female BALB/c mouse implanted with mouse orthotopic 4T1-Luc cells assessed as decrease in proportion of MHC-II-negative tumor-associated neutrophils at 1 to 10 mg/kg, iv administered via tail vein every 2 days for 9 times for 17 days by single-cell mass spectrometry flow cytometry analysis", "assay_type": "functional, organism-based", "details": "dose 1-10 mg/kg, time 17.0 day"}, "[7]": {"tested_on": "4T1", "assay": "Antimetastatic activity in starved mouse 4T1 cells assessed as inhibition of cell migration by measuring reduction in wound closure rate incubated for 24 hrs by scratch wound healing assay", "assay_type": "functional, cell-based", "details": "dose 0.5-2 µM"}, "[8]": {"tested_on": "4T1-Luc", "assay": "Antitumor activity against mouse orthotopic 4T1-Luc cells implanted in female BALB/c mouse assessed as increase in neutrophil infiltration in tumor at 10 mg/kg, iv administered via tail vein every 2 days for 9 times for 17 days by immunohistochemical staining based analysis", "assay_type": "functional, organism-based", "details": "time 17.0 day"}, "[9]": {"tested_on": "Mus musculus", "assay": "Induction of tumor microenvironment in female BALB/c mouse implanted with mouse orthotopic 4T1-Luc cells assessed as increase in MHC-II expression for MHC-II-negative tumor-associated neutrophils at 1 to 10 mg/kg, iv administered via tail vein every 2 days for 9 times for 17 days", "assay_type": "functional, organism-based", "details": "dose 1-10 mg/kg, time 17.0 day"}, "[10]": {"assay": "Toxicity in female BALB/c mouse implanted with mouse orthotopic 4T1-Luc cells assessed as effect on serum creatinine level at 1 to 10 mg/kg, iv administered via tail vein every 2 days for 9 times for 17 days", "assay_type": "organism-based", "details": "in vivo, 408 h, dose 1-10 mg/kg, time 17 day"}, "[11]": {"assay": "Toxicity in female BALB/c mouse implanted with mouse orthotopic 4T1-Luc cells assessed as morphological changes in liver at 1 to 10 mg/kg, iv administered via tail vein every 2 days for 9 times for 17 days by H and E staining based analysis", "assay_type": "organism-based", "details": "in vivo, 408 h, dose 1-10 mg/kg, time 17 day"}, "[12]": {"assay": "AUC (0 to t) in male Sprague-Dawley rat at 3.5 mg/kg, iv by LC-MS/MS analysis", "assay_type": "ADME, organism-based", "details": "in vivo"}, "[13]": {"tested_on": "Neutrophil", "assay": "In vivo inhibition of PAD4 in female BALB/c mouse implanted with mouse orthotopic 4T1-Luc cells assessed as inhibition of neutrophil extracellular traps formation in tumor at 10 mg/kg, iv administered via tail vein every 2 days for 9 times for 17 days by immunohistochemical staining based analysis", "assay_type": "functional, organism-based", "details": "time 17.0 day"}, "[14]": {"tested_on": "Mus musculus", "assay": "as §1, with “PD-L1-positive/MHC-II-positive” for “MHC-II-negative”", "assay_type": "functional, organism-based", "details": "dose 1-10 mg/kg, time 17.0 day"}, "[15]": {"assay": "Toxicity in female BALB/c mouse implanted with mouse orthotopic 4T1-Luc cells assessed as effect on serum AST level at 1 to 10 mg/kg, iv administered via tail vein every 2 days for 9 times for 17 days", "assay_type": "organism-based", "details": "in vivo, 408 h, dose 1-10 mg/kg, time 17 day"}, "[16]": {"molecular_target": "Protein-arginine deiminase type-2 (Homo sapiens, UniProt Q9Y2J8)", "sequence (Q9Y2J8 whole entry)": "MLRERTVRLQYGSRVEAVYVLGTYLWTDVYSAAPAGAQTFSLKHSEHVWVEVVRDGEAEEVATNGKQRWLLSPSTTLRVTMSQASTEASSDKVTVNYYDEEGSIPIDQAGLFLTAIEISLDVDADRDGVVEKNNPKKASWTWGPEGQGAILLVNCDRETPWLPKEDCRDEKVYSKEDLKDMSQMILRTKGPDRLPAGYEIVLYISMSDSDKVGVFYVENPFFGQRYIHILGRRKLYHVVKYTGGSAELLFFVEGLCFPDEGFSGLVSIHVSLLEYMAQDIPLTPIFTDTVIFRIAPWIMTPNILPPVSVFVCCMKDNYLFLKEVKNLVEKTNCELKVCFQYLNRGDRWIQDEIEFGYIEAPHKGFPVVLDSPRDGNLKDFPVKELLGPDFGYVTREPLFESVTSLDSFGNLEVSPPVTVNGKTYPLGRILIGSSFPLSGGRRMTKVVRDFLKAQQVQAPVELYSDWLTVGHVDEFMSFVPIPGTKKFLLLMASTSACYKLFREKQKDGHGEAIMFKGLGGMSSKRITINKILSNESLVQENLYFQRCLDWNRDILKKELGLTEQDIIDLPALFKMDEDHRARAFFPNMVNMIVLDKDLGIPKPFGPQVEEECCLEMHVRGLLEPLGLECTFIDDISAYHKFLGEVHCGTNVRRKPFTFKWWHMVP", "assay": "Inhibition of PAD2 (unknown origin) using Nalpha-benzoyl-L-arginine ethyl ester as substrate preincubated for 60 mins followed by substrate addition and measured after 90 mins by colorimetric analysis"}, "[17]": {"tested_on": "4T1", "assay": "Antimetastatic activity in starved mouse 4T1 cells assessed as inhibition of cell migration by measuring reduction in number of metastatic cells incubated for 12 hrs by crystal violet staining based transwell assay", "assay_type": "functional", "details": "dose 0.5-2 µM"}}, "note": "Calls of active or inactive are those of the source. The rule behind the calls is not given here."}
{"smiles": "N=C(CCl)NCCC[C@H](NC(=O)c1cc2c([nH]c3ccccc32)c(-c2ccccc2)n1)C(=O)NCc1ccccc1", "values": [{"measurement": "inhibition", "setting": "[1]", "result": "Active"}, {"measurement": "Activity", "setting": "[2]", "result": "Dose-Dependent Effect"}, {"measurement": "inhibition", "setting": "[3]", "result": "Dose-Dependent Effect"}, {"measurement": "IC50", "setting": "[4]", "result": 2.39, "unit": "µM"}, {"measurement": "inhibition", "setting": "[5]", "result": "Active"}, {"measurement": "Activity", "setting": "[6]", "result": "Active"}, {"measurement": "Activity", "setting": "[7]", "result": "Dose-Dependent Effect"}, {"measurement": "Activity", "setting": "[8]", "result": "Active"}, {"measurement": "Activity", "setting": "[9]", "result": "Active"}, {"measurement": "Activity", "setting": "[10]", "result": "Non-Toxic"}, {"measurement": "Activity", "setting": "[11]", "result": "Non-Toxic"}, {"measurement": "AUC(0-t)", "setting": "[12]", "result": 9.53, "unit": "ng·h/mL"}, {"measurement": "inhibition", "setting": "[13]", "result": "Active"}, {"measurement": "Activity", "setting": "[14]", "result": "Active"}, {"measurement": "Activity", "setting": "[15]", "result": "Non-Toxic"}, {"measurement": "IC50", "setting": "[16]", "result": 2.97, "unit": "µM"}, {"measurement": "Activity", "setting": "[17]", "result": "Dose-Dependent Effect"}]}
